In ChEMBL document CHEMBL5726139, “Heterocyclic compounds and methods of their use” (2017):

biological target: T1, Type-2 angiotensin II receptor (Homo sapiens, UniProt P50052); experiment: Receptor Binding Assay: 120 μL membrane ([…]) was incubated with 15 μL of [125I]-CGP42112A and 15 μL of compound at RT for 1.5 hrs. The binding reaction was stopped by rapid filtration through Unifilter GF/C plates (presoaked in 0.3% (v:v) BSA). Plate was washed three times with ice cold wash buffer. The filtration plates were dried at 37° C. overnight. 50 μL of scintillation cocktail was added to each well. Radioactivity was determined using MicroBetaTriluxmicroplate scintillation counter.
T1 sequence (P50052 whole entry): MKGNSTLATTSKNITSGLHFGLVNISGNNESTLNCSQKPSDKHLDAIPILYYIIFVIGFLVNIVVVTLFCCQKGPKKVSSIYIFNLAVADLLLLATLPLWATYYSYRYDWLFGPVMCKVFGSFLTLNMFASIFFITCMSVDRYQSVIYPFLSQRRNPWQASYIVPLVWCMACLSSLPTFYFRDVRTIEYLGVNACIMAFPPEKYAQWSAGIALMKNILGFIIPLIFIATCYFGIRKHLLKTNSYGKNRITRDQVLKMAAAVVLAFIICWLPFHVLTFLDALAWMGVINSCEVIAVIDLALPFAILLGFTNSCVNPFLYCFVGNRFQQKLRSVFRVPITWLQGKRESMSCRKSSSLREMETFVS

| SMILES | IC50 |
| --- | --- |
| O=C(C(c1ccccc1)c1ccccc1)N1C[C@@H](OCCCc2ccccc2)[C@H]1CO | 0.65 µM |
| CC(=O)N(CCCc1ccccc1)[C@H]1C[C@@H](C(=O)O)N(C(=O)C(c2ccccc2)c2ccccc2)C1 | 0.24 µM |
| O=C(C(c1ccccc1)c1ccccc1)N1C[C@H](OCCCc2ccccc2)[C@H]1CO | 2.05 µM |
| O=C(O)[C@@H]1C[C@H](NC(=O)N(c2ccccc2)c2ccccc2)CN1C(=O)C(c1ccccc1)c1ccccc1 | 3.36 µM |

Other lines, results leading:

| IC50 | SMILES |
| --- | --- |
| 0.384 µM | CN(CCc1ccccc1)[C@H]1C[C@@H](C(=O)O)N(C(=O)C(c2ccccc2)c2ccccc2)C1 |
| 0.00352 µM | CN(CCCc1ccc(F)cc1)[C@H]1C[C@@H](c2nnn[nH]2)N(C(=O)C(c2ccccc2)c2ccccc2)C1 |
